From PubChem BioAssay (NCI)
Several values for one entry are separate records, joined by “and”; a condition that tells them apart may be missing. Equal entries are not always repeated.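 1) Cells in 96-well plates. 2) Compound, 48 h, 5 concentrations. 3) Linear interpolation between surrounding doses. 4) Unreached endpoint = highest concentration. GI50: concentration for 50% inhibition of growth. Definition used: TGI = concentration required for complete inhibition of growth.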

How the values were obtained:
Experiment in all cases: NCI tumour cell line growth inhibition, 48 h
[1] = tested on: NCI-H23 lung
[2] = tested on: TK-10 renal
[3] = tested on: CCRF-CEM leukemia
[4] = tested on: HT29 colon
[5] = tested on: UACC-257 melanoma
[6] = tested on: HCC-2998 colon
[7] = tested on: NCI-H226 lung
[8] = tested on: OVCAR-5 ovarian
[9] = tested on: SR leukemia
[10] = tested on: HCT-15 colon

C=CC(=O)NCc1cccc(Nc2ncc(Br)c(NCCCNC(=O)C3CCC3)n2)c1
GI50 [1]: 1.5 µM and 1.19 µM | TGI [1]: 8.7 µM and 7.85 µM | GI50 [2]: 0.41 µM and 1.86 µM | TGI [2]: 4.21 µM and 11.6 µM | GI50 [3]: 0.707 µM and 0.454 µM | TGI [3]: 12.5 µM and > 25 µM | GI50 [4]: 1.67 µM and 0.27 µM | TGI [4]: 12.5 µM and 4.83 µM | GI50 [5]: 2.57 µM and 3.46 µM | TGI [5]: 12.5 µM and 20.6 µM | GI50 [6]: 1.83 µM and 3.03 µM | TGI [6]: 5.27 µM and 10.1 µM | GI50 [7]: 0.999 µM and 0.448 µM | TGI [7]: 7.85 µM and 11.8 µM | GI50 [8]: 0.709 µM and 2.56 µM | TGI [8]: 12.5 µM and 15.6 µM | GI50 [9]: 0.394 µM | TGI [9]: 12.5 µM | GI50 [10]: 2.27 µM and 2.65 µM | TGI [10]: 12.5 µM and 13.2 µM

COC(=O)C(C(=O)C(=O)Nc1nc(=S)[nH][nH]1)c1csc(-n2nc(-c3ccccc3)cc2-c2ccccc2)n1 (stereo not drawn)
TGI [1]: > 100 µM | TGI [2]: > 100 µM | TGI [3]: > 100 µM | TGI [4]: > 100 µM | TGI [5]: > 100 µM | TGI [6]: > 100 µM | TGI [7]: > 100 µM | TGI [8]: > 100 µM | TGI [9]: > 100 µM | TGI [10]: > 100 µM

COC(=O)/C=C(\C(=O)OC)c1c2c3c(cc(OC)c(OC)c3c3ccccc13)CCN2C
TGI [1]: > 100 µM | TGI [2]: > 100 µM | TGI [3]: 85.4 µM | TGI [4]: > 100 µM | TGI [5]: 89.7 µM | TGI [6]: > 100 µM | TGI [7]: > 100 µM | TGI [8]: > 100 µM | TGI [9]: > 100 µM | TGI [10]: > 100 µM

CN(C)CCNC(=O)C(C)(C)Oc1ccc(C(=O)c2ccc(Cl)cc2)cc1Cl
GI50 [1]: 4.77 µM | TGI [1]: 21.9 µM | TGI [2]: 23.7 µM | GI50 [3]: 5.31 µM | TGI [3]: > 77.3 µM | TGI [4]: 8.18 µM and 9.21 µM | GI50 [5]: 3.11 µM | TGI [5]: 7.79 µM and 4.84 µM | TGI [6]: 16.7 µM | TGI [7]: 29 µM | TGI [8]: 28.9 µM | GI50 [9]: 3.48 µM | TGI [9]: > 100 µM | GI50 [10]: 2.71 µM | TGI [10]: 7.12 µM and 11.2 µM

CCCCCCCCN(CCCCCCCC)CCCCCCNc1cc(OC)cc2cccnc12
GI50 [1]: 2.42 µM | TGI [1]: 6.2 µM | GI50 [2]: 20.3 µM | TGI [2]: 36 µM | GI50 [3]: 11.4 µM | TGI [3]: > 100 µM | GI50 [4]: 3.63 µM | TGI [4]: 15.9 µM | GI50 [5]: 2.2 µM | TGI [5]: 5.62 µM | GI50 [6]: 13.1 µM | TGI [6]: 26.2 µM | GI50 [7]: 17 µM | TGI [7]: 33.7 µM | GI50 [8]: 15.3 µM | TGI [8]: 29.6 µM | GI50 [9]: 6.7 µM | TGI [9]: 59.1 µM | GI50 [10]: 7.68 µM | TGI [10]: 24 µM

CC1(C)CCC2=C(O1)c1ccccc1C(=O)C2=O
GI50 [1]: 1.57 µM | TGI [1]: 3.91 µM and 1.09 µM | GI50 [2]: 1.83 µM | TGI [2]: 3.34 µM and 4.56 µM | GI50 [3]: 3.3 µM | TGI [3]: > 100 µM | GI50 [4]: 3.43 µM | TGI [4]: > 100 µM | GI50 [5]: 1.56 µM | TGI [5]: 3.05 µM and 0.429 µM | GI50 [6]: 1.76 µM | TGI [6]: 3.25 µM | GI50 [7]: 1.84 µM | TGI [7]: 3.77 µM and 2.89 µM | GI50 [8]: 1.81 µM | TGI [8]: 3.33 µM and 1.02 µM | GI50 [9]: 3.99 µM | TGI [9]: > 100 µM | GI50 [10]: 0.739 µM and 0.537 µM | TGI [10]: 2.33 µM and 1.79 µM

CC1CC(=O)Nc2ccccc2N1C(=O)CN1CCC(CCCCN(C)C)CC1 (stereo not drawn)
TGI [1]: > 100 µM | TGI [2]: > 100 µM | TGI [3]: > 100 µM | TGI [4]: > 100 µM | TGI [5]: > 100 µM | TGI [6]: > 100 µM | TGI [7]: > 100 µM | TGI [8]: > 100 µM | TGI [9]: > 100 µM | TGI [10]: > 100 µM

O=C1Nc2c(C(F)(F)F)cccc2[C@@]1(c1ccc(O)cc1)c1ccc(OC(F)(F)F)cc1
GI50 [1]: < 0.01 µM | TGI [1]: < 0.0135 µM | GI50 [2]: < 0.01 µM | TGI [2]: < 0.01 µM | GI50 [3]: 14.5 µM | TGI [3]: 45.9 µM | GI50 [4]: 0.0177 µM | TGI [4]: 0.0435 µM | GI50 [5]: 0.938 µM | TGI [5]: 20.1 µM | GI50 [6]: < 0.01 µM | TGI [6]: 0.0131 µM | GI50 [7]: 0.0108 µM | TGI [7]: 0.0273 µM | GI50 [8]: 0.0333 µM | TGI [8]: 16 µM | GI50 [9]: 10.5 µM | TGI [9]: 29.5 µM
